{"source": "patent US12508302B2", "about": "“Pharmaceutical composition providing mucolytic effect” (FRIMLINE PRIVATE LIMITED, priority 2022, dated 2025)", "test_system": "tracheobronchial secretion in rats", "test": "Mucolytic activity in rats: tracheobronchial secretion of fluorescein sodium (FINa)", "type": "in vivo, rat (Swiss Albino Rats)", "conditions": "for Fluorescein Sodium (FINa) Secretion: dosed 30 minutes before i.v. FINa 300 mg/kg, tracheobronchial lavage one hour after administration, doses as Table 1, mean±SEM; for Percentage (%) Enhancement of FINa secretion compared to Normal: versus normal group (G1)", "procedure": "The effect of the compositions of the present invention was studied in animals. For this study, screening effect of synergistic combination of compositions/formulations comprising N-Acetyl-L-Cysteine, Lactoferrin and additional active ingredients for mucolytic activity in rat was performed. The following trials were carried out:\nEighty-Four (84) rats including male and female (Swiss Albino Rats) divided into 14 groups (6 per group) were maintained in animal house in a light/dark atmosphere based on a 12 hour cycle having temperature and relative humidity in the range of 19 to 25±2° C. and 30-70%, respectively. To maintain the appropriate conditions, temperature and relative humidity were recorded three times daily. All animals were acclimatized for a minimum period of five days. Animals were maintained in the test setup for minimum 30 minutes once during the acclimatization period to reduce the stress. Animals were weighed on the day of receipt and observed daily for abnormalities if any. Detailed records of acclimatization were also maintained. Rats were housed 3 per cage in clean, sterilized Polypropylene cages. During complete experiments, animals were supplied with the standard certified rat pellet feed and drinking water treated by reverse osmosis ad libitum.\nIn order to evaluate the mucolytic activity in rats, eighty-four (84) rats were screened and divided into Fourteen (14) groups. For a comparative analysis, groups were divided and treated as below:\nTracheobronchial secretion in rats, expressed by the amount of fluorescein sodium (FINa) dye excreted into the respiratory tract, was measured by modification of methods published earlier.\nLactoferrin, Carotenoid, N-Acetyl-L-Cysteine or their combinations (G4-G14) were suspended in 1% Acacia. Acetylcholine (G2) and Bromhexine (G3) were dissolved in distilled water. The said active ingredients were administered orally (1 ml/100 g body weight) 30 minutes before intravenous injection of FINa (300 mg/kg, 0.1 ml/100 g body weight) in fasted rats.\nOne hour after administration, all rats were sacrificed with CO2 exposure; an incision was made, and the trachea was immediately exposed. An infant feeding tube was gently inserted into the trachea (about 30 mm deep). Five milliliters of 5% NaHCO3 solution (˜37° C.) was injected into the respiratory tract and immediately aspirated while gently massaging the thoracic area.\nThe tracheobronchial lavage fluid (4.9±0.1 ml) was centrifuged (3500 rpm for 10 minutes) and the supernatant was transferred to STP B & L tubes. The fluorescence intensity of the supernatant was measured with a Genesys 20 spectrophotometer set at a wavelength of 510 nm (emission)."}
{"smiles": "CC(=O)OCC[N+](C)(C)C", "note": "[Diseased Control, Acetylcholine]", "values": [{"measurement": "Fluorescein Sodium (FINa) Secretion", "result": "0.37 ± 0.12", "unit": "μg/100 g/h"}, {"measurement": "Percentage (%) Enhancement of FINa secretion compared to Normal", "setting": "doses as Table 1", "result": "−74.13 ± 6.4 ^ %"}, {"measurement": "Percentage (%) Enhancement of FINa secretion compared to Normal", "setting": "doses as Table 1, listed as diseased group", "result": "−74.13", "unit": "%"}]}
{"smiles": "CN(Cc1cc(Br)cc(Br)c1N)C1CCCCC1", "note": "[Positive Control, Bromhexine]", "values": [{"measurement": "Fluorescein Sodium (FINa) Secretion", "result": "2.64 ± 0.18", "unit": "μg/100 g/h"}, {"measurement": "Percentage (%) Enhancement of FINa secretion compared to Normal", "setting": "doses as Table 1", "result": "84.62 ± 6.1", "unit": "%"}, {"measurement": "Percentage (%) Enhancement of FINa secretion compared to Normal", "setting": "doses as Table 1, listed as positive control", "result": 84.62, "unit": "%"}]}
{"smiles": "CC(=O)N[C@@H](CS)C(=O)O", "note": "[NAC, N-Acetyl-L-Cysteine]", "values": [{"measurement": "Fluorescein Sodium (FINa) Secretion", "result": "1.99 ± 0.08", "unit": "μg/100 g/h"}, {"measurement": "Percentage (%) Enhancement of FINa secretion compared to Normal", "setting": "doses as Table 1", "result": "39.16 ± 5.1", "unit": "%"}, {"measurement": "Percentage (%) Enhancement of FINa secretion compared to Normal", "setting": "doses as Table 1, listed as N-Acetyl-L-Cysteine", "result": 39.16, "unit": "%"}]}
